Where “and” joins values, the source holds several entries; their conditions need not be identical. Identical values can stand only once.
Tests used:
[1] = Example 12: pharmacokinetics of tozadenant tablets (180 mg single dose, bioequivalence study) in humans; assay type: in vivo; details: both sexes, plasma, oral, 180 mg (approximately 2.6 mg/kg in 70 kg human)
Description: In a clinical study, tozadenant was administered PO as tablets under fasted conditions, as a single administration at 180 mg. This was an open-label, single-center, randomized, 2-treatment, 2-way crossover bioequivalence study testing 2 different tablet formulation of tozadenant. A modified formulation of tozadenant has been developed for use in Phase 3 studies. The modified formulation for use in Phase 3 studies contains four fewer excipients compared to the Phase 2 formulation. This study, therefore, evaluated the bioequivalence of the Phase 3 formulation and the Phase 2 formulation.
Thirty-six (36) healthy adult, non-tobacco using male and female subjects were enrolled to ensure completion by 32 subjects. […]
The following PK parameters were calculated from the individual plasma tozadenant concentration-time data. All PK parameters were calculated using Phoenix WinNonlin® Version 6.3. […] For the calculation of the PK parameters, concentration values below the limit of quantitation (BLQ) were treated as zero before the first quantifiable concentration and as missing thereafter. […]
AUC and Cmax parameters were not to be calculated for subjects with only 2 or less consecutive time points with detectable concentrations. […]
Tozadenant was quantitated using a validated liquid chromatography/tandem mass spectrometry method with a lower limit of quantitation (LLOQ) of 0.00500 μg/mL.

[2] = tested on: AT-3ova CD73+ tumour (mouse breast carcinoma cell line AT-3); experiment: Example 1: anti-tumor responses of SYN-115 in the AT-3ova CD73+ tumour cell mouse model (tumor area); assay type: in vivo, C57/BL6 mice
Description: The C57BL/6 mouse breast carcinoma cell line AT-3 was obtained from Dr. Trina Stewart (Griffith University, Nathan, QLD, Australia. Tumor cell lines were transduced to express chicken ovalbumin peptide and CD73 as previously described (1, 2, 3). Tumor cells are periodically verified to be Mycoplasma negative by the Victorian Infectious Diseases References Lab (Melbourne, VIC, Australia) by PCR analysis. Tumor cells were grown in DMEM supplemented with 10% FCS, GlutaMAX, and penicillin/streptomycin. 5×10^5 cells were resuspended in PBS and injected s.c. into C57/BL6 mice in a 100 μL volume. At day 14 tumors were measured and mice were randomized into distinct treatment groups to ensure that each group had tumors of similar size at the onset of treatment. Mice were treated i.p. at days 14, 18, 22, and 26 with either isotype control (2A3; 200 μg/mouse) or anti-PD-1 mAb (RMP1-14, 200 μg/mouse) and where indicated SYN-115 (Batch 71236AA002) at the indicated dose or vehicle control once-daily via oral gavage on days 14 to 29. To calculate a dose of SYN-115, mouse weight was estimated to be 20 g per mouse. Therefore, 100 mg/kg=2 mg per mouse in 200 μL, which is equivalent to 10 mg/ml. […] Tumor sizes were determined by width * length and mice were culled when tumors reached the ethical limit of 150 mm^2.

[3] = tested on: CT26 colon carcinoma tumor; experiment: Example 4: anti-tumor responses of SYN-115 in the CT26 tumor mouse model (tumor area, survival); assay type: in vivo, BALB/c mice; design: key: tumor area, width*length, in mm^2
Description: The BALB/c mouse colon carcinoma cell line CT26 was cultured in RPMI supplemented with 10% FCS, GlutaMAX, and penicillin/streptomycin. Tumor cells are periodically verified to be Mycoplasma negative by the Victorian Infectious Diseases References Lab (Melbourne, VIC, Australia) by PCR analysis. 1×10^5 cells were resuspended in PBS and injected s.c. into BALB/c mice in a 100 μL volume. At day 9, tumors were measured and mice were randomized into distinct treatment groups to ensure that each group had tumors of similar size at the onset of treatment. Mice were treated i.p. at days 9, 13 and 17 with either isotype control (2A3; 200 μg/mouse) or anti-PD-1 mAb (RMP1-14, 200 μg/mouse) and where indicated, SYN-115 (Batch 71236AA002) at the indicated dose or vehicle control once-daily via oral gavage on days 14 to 29. To calculate a dose of SYN-115 mouse weight was estimated to be 20 g per mouse. Therefore, 100 mg/kg=2 mg per mouse in […] which is equivalent to 10 mg/ml. To make up 40 mL, 400 milligrams of SYN-115 was weighed and added into a Falcon tube, then 1 mL of Tween 80 was added and mixed into a paste and then 39 mL of 1% Methyl Cellulose was added. The solution was vortexed and then left on a rotating mixer for at least 2 hours and maintained at 4° C. Tumor measurements were taken 2-3 times per week. Tumor sizes were determined by width * length and mice were culled when tumors reached the ethical limit of 150 mm^2.

[4] = Example 13: calculation of predicted human dose from mouse and human PK; details: for AUC: mouse, plasma
Description: Using the PK data above in mice and humans, a human efficacious dose was estimated by identifying a dose in humans that would result in plasma exposures similar to the efficacious dose in the oncology models in mice. The 100 mg/kg/day dose studied for PK in mice and the 180 mg dose studied for PK in humans were the relevant doses used in this estimation.
This predicted human efficacious dose for tozadenant for treating cancer based on the measured PK data can be contrasted to the predicted dose that would be calculated by the less informed but standard approach of using body surface area comparisons between mice and humans, whereby the equivalent dose in humans would be calculated by dividing the dose in mice by 12.3 (see, e.g., Nair A B, Jacob S. A simple practice guide for dose conversion between animals and human. J Basic Clin Pharma 2016;7:27-31). This approach would result in a predicted efficacious dose of 0.24 mg/kg in humans, which is equivalent to approximately 17 mg in a typical 70 kg human. Thus, this prediction using the standard method results in a targeted human dose more than an order of magnitude higher than the one informed by PK.

AUC [1]: 20600 ng·h/mL | AUC ([4]; oral, mice, 3 mg/kg efficacious dose, read-out: Point estimate AUC (linear extrapolation)): ~106 ng·h/mL | AUC ([4]; 2 mg/kg dose in mice, read-out: Target AUC in humans): 71 ng·h/mL | Predicted human dose achieving target AUC ([4]; target AUC of 71 hr*ng/mL (2 mg/kg mouse dose)): approximately 0.6 mg | Predicted human dose achieving target AUC ([4]; target AUC of 106 hr*ng/mL (3 mg/kg mouse dose)): approximately 0.9 mg
SMILES: COc1ccc(N2CCOCC2)c2sc(NC(=O)N3CCC(C)(O)CC3)nc12 [SYN-115, 4-hydroxy-4-methyl-piperidine-1-carboxylic acid (4-methoxy-7-morpholin-4-yl-benzothiazol-2-yl)-amide]
Tumor size (width * length) ([2]; 2A3+SYN-115 (100 mg/kg), Day 6): 23.5 mm^2 and 27.03 mm^2 and 30.74 mm^2 and 17.5 mm^2 and 33.6 mm^2 | Tumor size (width * length) ([2]; Anti-PD-1 (200 ug)+SYN-115 (100 mg/kg), Day 0): 13.76 mm^2 and 14 mm^2 and 17.2 mm^2 and 17.49 mm^2 and 26.22 mm^2 and 26.4 mm^2 | Raw Tumor Measurements ([3]; 2A3 (200 μg/mouse)+SYN-115 (30 mg/kg), Day 0): 12.71 and 14.85 and 16.32 and 18.92 and 20.16 and 22.36 | Raw Tumor Measurements ([3]; 2A3 (200 μg/mouse)+SYN-115 (30 mg/kg), Day 4): 37.62 and 42.12 and 40.7 and 53.2 and 38.4 and 52.56 | Raw Tumor Measurements ([3]; 2A3 (200 μg/mouse)+SYN-115 (30 mg/kg), Day 13): 146.41 and 150.7 and 93.93 and 186.83 | Raw Tumor Measurements ([3]; 2A3 (200 μg/mouse)+SYN-115 (30 mg/kg), Day 15): 188.94 and 100.8 | Raw Tumor Measurements ([3]; 2A3 (200 μg/mouse)+SYN-115 (30 mg/kg), Day 19): 186.12 | Raw Tumor Measurements ([3]; 2A3 (200 μg/mouse)+SYN-115 (100 mg/kg), Day 0): 12.76 and 14.8 and 17 and 18.9 and 20.5 and 21.12 | Raw Tumor Measurements ([3]; 2A3 (200 μg/mouse)+SYN-115 (100 mg/kg), Day 4): 44.73 and 41.31 and 42.7 and 41.76 and 49.64 and 25.85 | Raw Tumor Measurements ([3]; 2A3 (200 μg/mouse)+SYN-115 (100 mg/kg), Day 6): 53.4 and 59.78 and 73.04 and 58.32 and 71.76 and 42.92 | Raw Tumor Measurements ([3]; 2A3 (200 μg/mouse)+SYN-115 (100 mg/kg), Day 8): 66.75 and 90.2 and 89 and 87.4 and 94.08 and 51.84 | Raw Tumor Measurements ([3]; 2A3 (200 μg/mouse)+SYN-115 (100 mg/kg), Day 13): 187.53 and 175.56 and 213.12 and 203.68 and 164.56 and 110.4 | Raw Tumor Measurements ([3]; 2A3 (200 μg/mouse)+SYN-115 (100 mg/kg), Day 15): 151.42 | Raw Tumor Measurements ([3]; Anti-PD-1 (200 ug)+SYN-115 (30 mg/kg), Day 22): 108 and 136.64 and 120.64 | Raw Tumor Measurements ([3]; Anti-PD-1 (200 ug)+SYN-115 (30 mg/kg), Day 25): 160.95 and 151.2 and 159.6

Source: patent US20220088024A1, “METHODS FOR TREATING CANCER USING TOZADENANT” (Biotie Therapies, Inc., priority 2018, published 2022)
